Tests used:
Type in all cases: in vivo
Veronica persica [1] = assay: Post-emergence herbicidal effect; conditions: 320 g/ha, assessed visually after about 3 weeks vs untreated controls
Procedure, shortened: (§1)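 Seedlings at the one-leaf stage, about 2 to 3 weeks old, are sprayed on their foliage with compound suspended or emulsified in water containing 0.2% wetting agent. After roughly 3 weeks in the greenhouse, injury is estimated visually on a 0 to 100% scale.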

Viola tricolor [2] = assay: Post-emergence herbicidal effect; conditions: assessed visually after about 3 weeks vs untreated controls
Procedure, shortened: as §1

Stellaria media [3] = assay: Post-emergence herbicidal effect; conditions: 320 g/ha, assessed visually after about 3 weeks vs untreated controls
Procedure, shortened: as §1

Matricaria inodora [4] = assay: Pre-emergence herbicidal effect; conditions: scored visually after 3 weeks
Procedure, shortened: (§2)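 Pre-em soil-surface spray; sandy loam, seeds covered with soil. WP/EC, aq. suspension/emulsion, 600–800 L/ha, +0.2% wetting agent. GH 3 wk; visual % activity vs untreated (100% = dead).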

Cyperus esculentus = assay: Pre-emergence herbicidal effect; conditions: Dosage 320 g/ha, scored visually after 3 weeks
Procedure, shortened: as §2

Veronica persica [5] = assay: Pre-emergence herbicidal effect; conditions: scored visually after 3 weeks
Procedure, shortened: as §2

Viola tricolor [6] = assay: Pre-emergence herbicidal effect; conditions: scored visually after 3 weeks
Procedure, shortened: as §2

Amaranthus retroflexus [7] = assay: Pre-emergence herbicidal effect; conditions: Dosage 320 g/ha, scored visually after 3 weeks
Procedure, shortened: as §2

Polygonum convolvulus [8] = assay: Pre-emergence herbicidal effect; conditions: scored visually after 3 weeks
Procedure, shortened: as §2

Polygonum convolvulus [9] = assay: Post-emergence herbicidal effect; conditions: 320 g/ha, assessed visually after about 3 weeks vs untreated controls
Procedure, shortened: as §1

Matricaria inodora [10] = assay: Post-emergence herbicidal effect; conditions: 320 g/ha, assessed visually after about 3 weeks vs untreated controls
Procedure, shortened: as §1

Lolium multiflorum [11] = assay: Post-emergence herbicidal effect; conditions: 320 g/ha, assessed visually after about 3 weeks vs untreated controls
Procedure, shortened: as §1

Abutilon theophrasti [12] = assay: Post-emergence herbicidal effect; conditions: 320 g/ha, assessed visually after about 3 weeks vs untreated controls
Procedure, shortened: as §1

Alopecurus myosuroides [13] = assay: Post-emergence herbicidal effect; conditions: 320 g/ha, assessed visually after about 3 weeks vs untreated controls
Procedure, shortened: as §1

Ipomoea purpurea = assay: Post-emergence herbicidal effect; conditions: 320 g/ha, assessed visually after about 3 weeks vs untreated controls
Procedure, shortened: as §1

Amaranthus retroflexus [14] = assay: Post-emergence herbicidal effect; conditions: 320 g/ha, assessed visually after about 3 weeks vs untreated controls
Procedure, shortened: as §1

Lolium multiflorum [15] = assay: Pre-emergence herbicidal effect; conditions: Dosage 320 g/ha, scored visually after 3 weeks
Procedure, shortened: as §2

Abutilon theophrasti [16] = assay: Pre-emergence herbicidal effect; conditions: Dosage 320 g/ha, scored visually after 3 weeks
Procedure, shortened: as §2

Setaria viridis = assay: Pre-emergence herbicidal effect; conditions: Dosage 320 g/ha, scored visually after 3 weeks
Procedure, shortened: as §2

Echinochloa crus-galli = assay: Pre-emergence herbicidal effect; conditions: Dosage 320 g/ha, scored visually after 3 weeks
Procedure, shortened: as §2

Alopecurus myosuroides [17] = assay: Pre-emergence herbicidal effect; conditions: Dosage 320 g/ha, scored visually after 3 weeks
Procedure, shortened: as §2

Stellaria media [18] = assay: Pre-emergence herbicidal effect; conditions: scored visually after 3 weeks
Procedure, shortened: as §2

Structure (SMILES)	post-emergence efficacy VERPE (Veronica persica [1]) [%]	post-emergence efficacy VIOTR (Viola tricolor [2]; 320 g/ha) [%]	post-emergence efficacy STEME (Stellaria media [3]) [%]	MATIN pre-emergence efficacy (herbicidal activity) (Matricaria inodora [4]; Dosage 320 g/ha) [%]	CYPES pre-emergence efficacy (herbicidal activity) (Cyperus esculentus) [%]	VERPE pre-emergence efficacy (herbicidal activity) (Veronica persica [5]; Dosage 320 g/ha) [%]	VIOTR pre-emergence efficacy (herbicidal activity) (Viola tricolor [6]; Dosage 320 g/ha) [%]	AMARE pre-emergence efficacy (herbicidal activity) (Amaranthus retroflexus [7]) [%]	POLCO pre-emergence efficacy (herbicidal activity) (Polygonum convolvulus [8]; Dosage 320 g/ha) [%]	further results
CS(=O)(=O)c1cnc(NC2CCCc3occc32)nc1N (racemic) [compound 13]	90	100	80	100	100	90	100	100	–	–
Cc1cc2c(s1)CCCC2Nc1nc(N)c(Br)c(C(C)(C)F)n1 (racemic) [compound 307]	–	–	–	50	60	–	100	–	70	–
C/C(=N\OC(C)C)c1cnc(NC2CCCc3sc(C)cc32)nc1N (racemic) [compound 288]	100	90	80	100	–	100	100	100	100	post-emergence efficacy POLCO (Polygonum convolvulus [9]): 70%; post-emergence efficacy MATIN (Matricaria inodora [10]): 90%; post-emergence efficacy VIOTR (Viola tricolor [2]; 80 g/ha): 70%; post-emergence efficacy LOLMU (Lolium multiflorum [11]): 60%; post-emergence efficacy ABUTH (Abutilon theophrasti [12]): 90%; post-emergence efficacy ALOMY (Alopecurus myosuroides [13]): 70%; post-emergence efficacy PHBPU (Ipomoea purpurea): 70%; post-emergence efficacy AMARE (Amaranthus retroflexus [14]): 90%; POLCO pre-emergence efficacy (herbicidal activity) (Polygonum convolvulus [8]; Dosage 80 g/ha): 80%; MATIN pre-emergence efficacy (herbicidal activity) (Matricaria inodora [4]; Dosage 80 g/ha): 100%; VERPE pre-emergence efficacy (herbicidal activity) (Veronica persica [5]; Dosage 80 g/ha): 100%; VIOTR pre-emergence efficacy (herbicidal activity) (Viola tricolor [6]; Dosage 80 g/ha): 70%; LOLMU pre-emergence efficacy (herbicidal activity) (Lolium multiflorum [15]): 100%; ABUTH pre-emergence efficacy (herbicidal activity) (Abutilon theophrasti [16]): 70%; SETVI pre-emergence efficacy (herbicidal activity) (Setaria viridis): 100%; ECHCG pre-emergence efficacy (herbicidal activity) (Echinochloa crus-galli): 100%; ALOMY pre-emergence efficacy (herbicidal activity) (Alopecurus myosuroides [17]): 80%; STEME pre-emergence efficacy (herbicidal activity) (Stellaria media [18]; Dosage 80 g/ha): 100%; STEME pre-emergence efficacy (herbicidal activity) (Stellaria media [18]; Dosage 320 g/ha): 100%
